Reference: US10350188B2, “Use of Neu1 sialidase inhibitors in the treatment of cancer” (priority 2011, dated 2019)
Where “and” joins values, the source holds several entries; their conditions need not be identical. Identical values can stand only once.

How the values were obtained:
[1] = system: A 2780 cells; test: Cell viability of A 2780 ovarian cancer cells in culture (MTT or WST-1, 72 hrs); format: cell-based, human; settings: oseltamivir phosphate alone; A 2780 (chemo-sensitive); MTT or WST-1, 72 hrs
Protocol: (§1) A-2780 cells are human ovarian cancer cell line which was established from tumor tissue from an untreated patient with adenocarcinoma. Cells grow as a monolayer and in suspension in spinner cultures.
(§2) All cells were grown at 37° C. in 5% CO2 in culture media containing Dulbecco's Modified Eagle Medium (DMEM) (Gibco, Rockville, Md.) supplemented with 10% fetal calf serum (FCS) (HyClone, Logan, Utah, USA).
(§3) MTT is a colorimetric assay for measuring the activity of enzymes that reduce MTT or closely related dyes (XTT, MTS, WSTs) to formazan dye, giving a purple color. A main application allows the assessment of the viability (cell counting) and the proliferation of cells (cell culture assays). It can also be used to determine cytotoxicity of potential medicinal agents and toxic materials, since those agents would stimulate or inhibit cell viability and growth. MTT (3-(4,5-Dimethylthiazol-2-yl)-2,5-diphenyltetrazolium bromide, a yellow tetrazole), is reduced to purple formazan in living cells. A solubilization solution (usually either dimethyl sulfoxide, an acidified ethanol solution, or a solution of the detergent sodium dodecyl sulphate in diluted hydrochloric acid) is added to dissolve the insoluble purple formazan product into a coloured solution. The absorbance of this coloured solution can be quantified by measuring at a certain wavelength (usually between 500 and 600 nm) by a spectrophotometer. The absorption maximum is dependent on the solvent employed.
(§4) WST-1 (Roche Applied Sciences, Montreal) is a ready-to-use substrate which measures the metabolic activity of viable cells. The WST-1 assay is nonradioactive and can be performed entirely in a microplate. It is suitable for measuring cell proliferation, cell viability or cytotoxicity. The assay is based on the reduction of WST-1 by viable cells. The reaction produces a soluble formazan salt. The procedure involves: Culturing the cells in a 96-well microplate, then incubating them with WST-1 for approx. 0.5-4 h. During this incubation period, viable cells convert WST-1 to a water-soluble formazan dye. Quantitating the formazan dye in the microplate is done with an ELISA plate reader. The absorbance directly correlates with the cell number.

[2] = system: BxPC-3 cells; test: Cell viability of BxPC-3 pancreatic cancer cells in culture (MTT or WST-1, 72 hrs); format: cell-based, human; settings: oseltamivir phosphate alone; BxPC-3 (chemo-resistant); MTT or WST-1, 72 hrs
[3] = system: MiaPaCa-2-eGFP pancreatic cancer cells implanted in RAG2/Cγ double mutant Balbc xenograft mice; test: MiaPaCa-2-eGFP pancreatic cancer xenograft in RAG2/Cγ double mutant Balbc mice; format: in vivo, mouse
Protocol: Tumour measurements were taken twice a week.
MiaPaCa-2-eGFP pancreatic cancer cells at 1.5×10^6 in 0.2 mL were implanted subcutaneously in the right back flank of these mice. Each mouse in the study was identified by an ear punch number. Twice a week each mouse following implantation of the cancer cells was monitored for tumour volume growth (length and width) at the site of implantation, body weights, and body condition scoring. Scoring the body condition of rodents is a non-invasive method for assessing health and establishing endpoints for adults where body weight is not a viable monitoring tool, such as with tumour models. Body condition scores (BC) range from 1(emaciation) to 5 (obesity). An anticipated BCS of 2—under conditioned—or lower, requires justification in the protocol. Scores are determined by frequent visual and hands-on examination of each animal. The hands-on evaluation is done by gently holding the mouse by the base of the tail and passing a finger over the sacroiliac bones. The findings are matched to the descriptions and diagrams of BC ranges to determine a score. Scores are documented for each animal.

[4] = system: MCF-7 cells; test: Cell viability of MCF-7 breast cancer cells in culture (MTT or WST-1, 72 hrs); format: cell-based, human; settings: oseltamivir phosphate alone; MCF-7 (chemo-sensitive); MTT or WST-1, 72 hrs
Protocol: (§5) MDA MB-231cells (ATCC® Number: HTB-26™) are human mammary gland breast adenocarcinoma derived from metastatic pleural effusion with epithelial morphology. MCF-7 (ATCC® Number: HTB-22™) are human mammary gland breast adenocarcinoma derived from metastatic pleural effusion with epithelial morphology.
as §2, §3, §4

[5] = system: MiaPaCa-2 cells; test: Cell viability of MiaPaCa-2 pancreatic cancer cells in culture (MTT or WST-1, 72 hrs); format: cell-based, human
[6] = system: A 2780cis cells; test: Cell viability of A 2780cis ovarian cancer cells in culture (MTT or WST-1, 72 hrs); format: cell-based, human; settings: oseltamivir phosphate alone; A 2780cis (chemo-resistant); MTT or WST-1, 72 hrs
Protocol: as §1, §2, §3, §4

[7] = system: MDA MB-231 cells; test: Cell viability of MDA MB-231 breast cancer cells in culture (MTT or WST-1, 72 hrs); format: cell-based, human; settings: oseltamivir phosphate alone; MDA MB-231 (chemo-resistant); MTT or WST-1, 72 hrs
Protocol: as §5, §2, §3, §4

[8] = system: PANC-1 cells; test: Cell viability of PANC-1 pancreatic cancer cells in culture (MTT or WST-1, 72 hrs); format: cell-based, human
[9] = system: PANC-1 human pancreatic cancer cells implanted in RAG1/Cγ double mutant NOD xenograft mice; test: PANC-1 pancreatic cancer xenograft in RAG1/Cγ double mutant NOD mice; settings: for Liver metastases % Inhibition: vs untreated day 79
From the text: An immunodeficient mouse model with a double mutation in the combining recombinase activating gene-1 or -2 (RAG1 or RAG2) and common cytokine receptor γ chain (cγ) were used as xenograft mice. […] Mice deficient in both RAG2 and cγ (RAG2−/−/cγ−/−) were generated by inter-crossing and were maintained in SPF isolators in the Animal Care Facility, Queen's University, Kingston, Ontario K7L3N6, Canada. A colony was established in the animal facility. Mice deficient in both RAG1 and cγ (RAG1^−/−×cγ^−/−) on a non-obese diabetic (NOD) genetic background were obtained from the Jackson Laboratory (Bar Harbor, Me.) and a colony was established in the animal facility. All mice were kept under sterile conditions in micro-isolators or air-filtered cages, and were provided with autoclaved food and water. […] They were used between 6 and 8 weeks of age.
Puromycin-resistance eGFP transduced MiaPaCa-2 or PANC-1 cell clones were grown in 75 cm^2 cell culture flask at 80% confluence. The cells were resuspended into solution using TrypLE Express (Gibco) and washed with sterile saline. The cell suspension was centrifuged for 3 min at 900 rpm, and the cell pellet resuspended in sterile saline at a concentration of 5-10×10^6 cells/mL for 1-2×10^6 cells implantation into the right back flank of the mouse. Tumour measurements were taken twice a week. Tumour volumes were determined by (width square/2)×length.
The RAG1/Cγ double mutant xenograft mouse model was implanted with 2×10^6 PANC-1 cells in 0.2 mL in the right back flank.

[10] = system: Capan-1 cells; test: Cell viability of Capan-1 pancreatic metastatic cancer cells in culture (MTT or WST-1, 72 hrs); format: cell-based, human; settings: oseltamivir phosphate alone; Capan-1 (chemo-sensitive); MTT or WST-1, 72 hrs
Protocol: CAPAN-1 cells (ATCC® Number: HTB-79™) are human pancreatic cancer cell line with epithelial morphology expressing the 17 beta-estradiol (E2)-binding estrogen receptor and derived from metastatic liver with adenocarcinoma.
as §2, §3, §4

[11] = oseltamivir phosphate analogues (TD), WST-1, 72 hrs
[12] = day 84, oseltamivir phosphate 2 mg/kg daily, alone or with Abraxane 0.5 / Gemcitabine 30 mg/kg
[13] = day 84, oseltamivir phosphate 5 mg/kg daily, alone or with Abraxane 0.5 / Gemcitabine 30 mg/kg
[14] = day 93, oseltamivir phosphate 2 mg/kg daily, alone or with Gemcitabine 30 mg/kg
[15] = day 93, oseltamivir phosphate 5 mg/kg daily, alone or with Gemcitabine 30 mg/kg
[16] = oseltamivir phosphate 2 mg/kg, alone day 90, with abraxane 0.5 day 78, with gemcitabine 30 day 110

Structure (SMILES): CCOC(=O)C1=C[C@@H](OC(CC)CC)[C@H](NC(C)=O)[C@@H](N)C1 [oseltamivir phosphate]
- LD50 [1]: 1.5 µM
- LD50 [2]: 975 µM
- % Inhibition (tumour volume) ([3]; Table 8 study, day 46, 50 mg/kg, vs untreated): 60.4%
- % Inhibition (tumour volume) ([3]; Table 8 study, day 46, 100 mg/kg, vs untreated): 61.0%
- % Inhibition (tumour volume) ([3]; Table 8 study, day 46, 200 mg/kg, vs untreated): 58.5%
- Tumour volume ([3]; Table 8 study, day 46 post implantation, oseltamivir phosphate 50 mg/kg): 368 ± 38 (4) mm^3
- Tumour volume ([3]; Table 8 study, day 46 post implantation, oseltamivir phosphate 100 mg/kg): 362 ± 62 (4) mm^3
- Tumour volume ([3]; Table 8 study, day 46 post implantation, oseltamivir phosphate 200 mg/kg): 386 ± 88 (4) mm^3
- % Inhibition (tumour volume) ([3]; day 48, 2 mg/kg i.p., vs untreated): 61.7%
- % Inhibition (tumour volume) ([3]; day 48, 10 mg/kg i.p., vs untreated): 71.5%
- % Inhibition (tumour volume) ([3]; day 48, 50 mg/kg i.p., vs untreated): 60.3%
- % Inhibition (tumour volume) ([3]; day 48, 100 mg/kg i.p., vs untreated): 58.9%
- Tumour volume ([3]; day 48 post implantation, oseltamivir phosphate 2 mg/kg i.p.): 370 ± 88 (5) mm^3
- Tumour volume ([3]; day 48 post implantation, oseltamivir phosphate 10 mg/kg i.p.): 275 ± 71 (6) mm^3
- Tumour volume ([3]; day 48 post implantation, oseltamivir phosphate 50 mg/kg i.p.): 383 ± 71 (4) mm^3
- Tumour volume ([3]; day 48 post implantation, oseltamivir phosphate 100 mg/kg i.p.): 397 ± 57 (5) mm^3
- % Inhibition (tumour volume) ([3]; day 61, 2 mg/kg i.p.): 34.1%
- % Inhibition (tumour volume) ([3]; day 61, 10 mg/kg i.p.): 26.3%
- % Inhibition (tumour volume) ([3]; day 61, 50 mg/kg i.p.): 32.4%
- % Inhibition (tumour volume) ([3]; day 61, 100 mg/kg i.p.): 27.4%
- Tumour volume ([3]; day 61 post implantation, oseltamivir phosphate 2 mg/kg i.p.): 636 ± 35 (2) mm^3
- Tumour volume ([3]; day 61 post implantation, oseltamivir phosphate 10 mg/kg i.p.): 711 ± 159 (5) mm^3
- Tumour volume ([3]; day 61 post implantation, oseltamivir phosphate 50 mg/kg i.p.): 652 ± 173 (3) mm^3
- Tumour volume ([3]; day 61 post implantation, oseltamivir phosphate 100 mg/kg i.p.): 701 ± 201 (3) mm^3
- Reduction of tumour growth in time-to-progression ([3]; oseltamivir phosphate 2, 10, 50 and 100 mg/kg i.p. from day 40 post implantation, vs untreated): over 50%
- LD50 [4]: >3 µM
- LD50 ([5]; oseltamivir phosphate alone, MiaPaCa (chemo-resistant), MTT or WST-1, 72 hrs): 850 µM
- LD50 MiaPaCa-2 [5, 11]: 850 µM
- LD50 [6]: 1.0 µM
- LD50 [7]: 0.6 µM
- LD50 ([8]; oseltamivir phosphate alone, PANC-1 (chemo-resistant), MTT or WST-1, 72 hrs): 1462 µM
- LD50 PANC-1 [8, 11]: 1462 µM
- % Inhibition To untreated ([9]; day 79, oseltamivir phosphate 2 mg/kg daily, alone or with Abraxane 0.5 / Gemcitabine 30 mg/kg): 35% (n.s.)
- Tumour volume ([9]; day 79, oseltamivir phosphate 2 mg/kg i.p. daily, alone or with Abraxane 0.5 / Gemcitabine 30 mg/kg): 901 ± 104 (5) mm^3
- % Inhibition To untreated ([9]; day 79, oseltamivir phosphate 5 mg/kg daily, alone or with Abraxane 0.5 / Gemcitabine 30 mg/kg): 31% (n.s.)
- Tumour volume ([9]; day 79, oseltamivir phosphate 5 mg/kg i.p. daily, alone or with Abraxane 0.5 / Gemcitabine 30 mg/kg): 956 ± 345 (4) mm^3
- % Inhibition To untreated [9, 12]: 22% (n.s.)
- Tumour volume [9, 12]: 1079 ± 91 (5) mm^3
- % Inhibition To untreated [9, 13]: 5% (n.s.)
- Tumour volume [9, 13]: 1321 ± 503 (4) mm^3
- % Inhibition To untreated [9, 14]: 0% (n.s.)
- Tumour volume [9, 14]: 1554 ± 469 (2) mm^3
- % Inhibition To untreated [9, 15]: 0% (n.s.)
- Tumour volume [9, 15]: 1406 ± 471 (2) mm^3
- Liver metastases (ave number of nodules) ([9]; oseltamivir phosphate 2 mg/kg, alone day 90, with abraxane 0.5 mg/kg day 78, with gemcitabine 30 mg/kg day 110): 26
- Metastases (size, mm) [9, 16]: 0.2-1.3 mm
- Liver metastases % Inhibition [9, 16]: 38%
- Liver metastases (ave number of nodules) ([9]; oseltamivir phosphate 5 mg/kg, alone day 90, with abraxane 0.5 mg/kg day 90, with gemcitabine 30 mg/kg day 109): 21
- Liver metastases % Inhibition ([9]; oseltamivir phosphate 5 mg/kg, alone day 90, with abraxane 0.5 day 90, with gemcitabine 30 day 109): 50%
- Survival of tumour bearing mice ([9]; oseltamivir phosphate 2 and 5 mg/kg, Abraxane 0.5 mg/kg, gemcitabine 30 mg/kg, alone or combined, untreated control day 80): 91 days and 94 days
- LD50 [10]: 2 µM
